Experimental data published in paper PMC12406203 (Journal of Medicinal Chemistry, 2025).

Assays:
[1] = test system: mice (locomotor activity); test: Locomotor activity test; details: 10 mg/kg i.p.
From the text: The mice had unlimited access to food and water prior to the experiment. Specified conditions for the maintenance of mice were ensured throughout the experiment, including tree bedding (Transwior, Poland) and cage enrichment (tunnels, nesting material, wooden igloos, etc.). For behavioral tests, the mice were selected randomly; each group consisted of 7–10 mice. […] After in vivo tests, the animals were immediately euthanized, and their tissues were collected and stored for further ex vivo testing.
They were administered intraperitoneally (i.p.) 60 min before the acquisition trial of the PA, NOR, and MWM tasks.
The locomotor activity test was performed using activity cages (40 cm × 40 cm × 30 cm, supplied with IR beam emitters) (Activity Cage 7441, Ugo Basile, Italy) connected to a counter for the recording of light-beam interrupts. […] The animals’ movements (i.e., the number of light-beam crossings) were counted during the next 60 min of the test. Before the experiment, the mice were habituated to activity cages for 15 min.

HepG2 cells = test: MTS metabolic activity (cytotoxicity); format: cell-based, human; details: HepG2, MTS assay, 24 h, concentrations of 5 μM or less
Experimental: (§1) The human hepatocellular carcinoma HepG2 and human neuroblastoma SH-SY5Y cell lines were purchased from American Type Culture Collection (Manassas, VA, USA). The murine microglia BV2 cells were a generous gift from Dr. Biljana Božić Nedeljković (University of Belgrade, Belgrade, Serbia). Cells were cultured in Advanced Dulbecco’s modified Eagle’s medium (Gibco, Thermo Fisher Scientific, Waltham, MA, USA) supplemented with 10% fetal bovine serum (FBS, Gibco), 2 mM L-glutamine, 50 U/mL penicillin and 50 μg/mL streptomycin (Sigma, St. Louis, MO, USA) in a humidified atmosphere of 95% air and 5% CO2 at 37 °C, and grown to 80% confluence. Prior to cell treatment, complete medium was replaced with serum-free medium. Compounds 94 and 95 were prepared as a stock solution of 30 mM in DMSO and were used at concentrations of 1–100 μM.
(§2) BV2 cells (5 × 10^3/well) and HepG2 and SH-SY5Y cells (1 × 10^4/well) were seeded in 96-well plates and assessed by MTS ([3-(4,5-dimethylthiazol-2-yl)-5-(3-carboxymethoxyphenyl)-2-(4-sulfophenyl)-2H tetrazolium, inner salt) assay for their response to compounds 94 and 95. Cells were treated with increasing concentrations of compounds (1–100 μM) in serum-free medium, and metabolic activity was assessed after 24 h using the CellTiter 96 Aqueous One Solution Cell Proliferation Assay (Promega, Madison, WI, USA), in accordance with the manufacturer’s instructions. Absorbance was measured with an automatic microplate reader (Tecan Safire^2, Switzerland) at a wavelength of 492 nm. Results are presented as a percentage of the control (DMSO).

SH-SY5Y cells = test: MTS metabolic activity (cytotoxicity); format: cell-based, human; details: MTS assay, 24 h, concentrations of 5 μM or less
Experimental: as §1, §2

[2] = test system: RSK2 (Kin.Dom.1-N-terminal)
human p38α MAPK = human p38α MAPK (Homo sapiens, UniProt Q16539); test: biochemical
Experimental: The inhibitory activities against human p38α MAPK were evaluated using the commercially available ADP-Glo Kinase Assay (Promega, Inc., USA).
For the reference sample, 1% [v/v] DMSO replaced the inhibitor solution. […] The enzyme reaction was started with the addition of the enzyme solution. The DMSO concentration in the test solution was maintained at 1% [v/v]. The plate was incubated for 60 min. Then 5 μL of ADP-Glo reagent was added, followed by a 40 min incubation at room temperature. […] All incubations were performed at room temperature. The RA and IC50 values were calculated as described above (ChEs inhibitory potency).

panel of 103 kinases = test: KINOMEscan kinase selectivity profiling (whole panel); format: binding; details: 10 and 1 μM
Experimental: The kinase inhibition profile of compounds 94 and 95 was assessed against 103 protein kinases by Eurofins DiscoverX, LLC., using the KINOMEscan assay. Kinase-tagged T7 phage strains were grown in parallel in 24-well blocks in an E. coli host derived from the BL21 strain. E. coli were grown to log-phase and infected with T7 phage from a frozen stock (multiplicity of infection = 0.4) and incubated with shaking at 32 °C until lysis (90–150 min). The lysates were centrifuged (6000g) and filtered (0.2 μm) to remove cell debris. The remaining kinases were produced in HEK-293 cells and subsequently tagged with DNA for qPCR detection. […] The liganded beads were blocked with excess biotin and washed with blocking buffer (SeaBlock (Pierce), 1% BSA, 0.05% Tween 20, 1 mM DTT) to remove unbound ligand and to reduce nonspecific phage binding. […] Test compounds were prepared as 100× stocks in 100% DMSO and directly diluted into the assay. All reactions were performed in polypropylene 384-well plates in a final volume of 0.02 mL. […] The kinase concentration in the eluates was measured by qPCR.
The compound(s) were screened at the concentration(s) requested, and results for primary screen binding interactions are reported as RA (%), where lower numbers indicate stronger hits in the matrix. RA=(testcompoundsignal−PCsignal/NCsignal−PCsignal)×100
Test compound = Cpd. […]

Log D determination = format: physicochemical; details: pH 7.4, n-octanol/PBS
Experimental: Calibration curves for phosphate-buffered saline (PBS) (pH = 7.4) and octanol were prepared (0.05–5 μM). The buffer and n-octanol phases were shaken, using phosphate buffer (pH = 7.4). The phase ratios of buffer to n-octanol were 1:1 (0.8 mL octanol:0.8 mL PBS) and 1:3 (0.4 mL octanol:1.2 mL PBS). Octanol was then pipetted into a HPLC vial, followed by the addition of 1.6 μL of a 10 mM stock DMSO solution and the buffer. The vial was mixed with a vortex mixer and shaken for 3 h in the dark at 23 °C. Subsequently, the aqueous and organic phases were sampled with a syringe into a new HPLC vial, and the samples were analyzed using UHPLC/DAD.

[3] = test system: TYK2(JH1domain-catalytic)
hBChE = hBChE (Homo sapiens, UniProt P06276); test: biochemical
[4] = p38α MAPK IC50, IC50 expressed as concentration in ng/mL
[5] = p38α MAPK IC50 ± SEM, two independent experiments, each in triplicate
[6] = hBChE IC50 ± SEM, two independent experiments, each in triplicate
[7] = in vitro hBChE IC50, IC50 expressed as concentration in ng/mL

human p38α MAPK, sequence (Q16539 whole entry): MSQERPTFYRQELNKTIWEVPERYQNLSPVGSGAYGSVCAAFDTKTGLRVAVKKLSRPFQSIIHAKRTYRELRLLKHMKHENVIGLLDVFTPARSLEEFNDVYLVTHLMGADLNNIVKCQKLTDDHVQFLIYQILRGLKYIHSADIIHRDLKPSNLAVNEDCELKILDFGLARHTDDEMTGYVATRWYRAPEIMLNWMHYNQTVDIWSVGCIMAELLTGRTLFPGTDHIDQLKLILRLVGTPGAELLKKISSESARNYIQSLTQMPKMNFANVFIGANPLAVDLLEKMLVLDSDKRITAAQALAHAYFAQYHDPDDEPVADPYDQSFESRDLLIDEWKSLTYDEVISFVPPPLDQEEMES
hBChE, sequence (P06276 29-602): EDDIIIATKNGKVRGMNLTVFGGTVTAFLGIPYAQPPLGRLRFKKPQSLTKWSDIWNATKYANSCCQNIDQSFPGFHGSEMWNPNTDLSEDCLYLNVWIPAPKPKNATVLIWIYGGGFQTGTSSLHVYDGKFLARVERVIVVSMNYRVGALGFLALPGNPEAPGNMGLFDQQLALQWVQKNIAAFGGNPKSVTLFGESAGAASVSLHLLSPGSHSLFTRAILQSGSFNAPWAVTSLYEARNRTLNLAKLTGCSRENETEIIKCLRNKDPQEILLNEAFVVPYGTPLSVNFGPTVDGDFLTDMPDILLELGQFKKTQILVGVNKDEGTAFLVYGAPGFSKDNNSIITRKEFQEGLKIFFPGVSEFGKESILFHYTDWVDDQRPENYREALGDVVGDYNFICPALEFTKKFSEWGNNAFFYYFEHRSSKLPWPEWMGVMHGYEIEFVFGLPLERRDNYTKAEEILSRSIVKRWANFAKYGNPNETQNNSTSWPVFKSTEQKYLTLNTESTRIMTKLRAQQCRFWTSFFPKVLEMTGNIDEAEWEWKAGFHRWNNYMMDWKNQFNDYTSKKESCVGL

## CC(C)Cn1ncc2cc(Cc3ccc(F)cc3F)c(C(=O)NCCN(C)C)cc21 [Compound 94, 5-(2,4-Difluorobenzyl)-N-(2-(dimethylamino)ethyl)-1-isobutyl-1H-indazole-6-carboxamide]
PAK2
  RA @ 1000nM: 100%
  RA @ 10000nM: 97%
AURKB
  RA @ 1000nM: 84%
  RA @ 10000nM: 68%
JNK3
  RA @ 1000nM: 55%
  RA @ 10000nM: 6.8%
p38β
  RA @ 1000nM: 72%
  RA @ 10000nM: 15%
[1]
  motor adverse effects (locomotor activity test): no motor adverse effects
FAK
  RA @ 1000nM: 96%
  RA @ 10000nM: 89%
HepG2 cells
  cell viability: did not affect cell viability
SH-SY5Y cells
  cell viability: did not affect cell viability
PLK3
  RA @ 1000nM: 100%
  RA @ 10000nM: 97%
[2]
  RA @ 1000nM: 86%
  RA @ 10000nM: 65%
DCAMKL1
  RA @ 1000nM: 100%
  RA @ 10000nM: 100%
LCK
  RA @ 1000nM: 100%
  RA @ 10000nM: 97%
PRKCE
  RA @ 1000nM: 80%
  RA @ 10000nM: 80%
Human p38α MAPK; [4]
  IC50: 376 nM
Human p38α MAPK; [5]
  IC50: 377 ± 123 nM
PLK1
  RA @ 1000nM: 100%
  RA @ 10000nM: 100%
Panel of 103 kinases
  kinase selectivity: high selectivity for p38α MAPK
MARK3
  RA @ 1000nM: 100%
  RA @ 10000nM: 100%
IKKβ
  RA @ 1000nM: 89%
  RA @ 10000nM: 89%
PDPK1
  RA @ 1000nM: 88%
  RA @ 10000nM: 74%
Log D determination
  measured log D at pH 7.4: 2.13
KIT(D816V)
  RA @ 1000nM: 94%
  RA @ 10000nM: 100%
SRPK3
  RA @ 1000nM: 77%
  RA @ 10000nM: 100%
[3]
  RA @ 1000nM: 78%
  RA @ 10000nM: 79%
hBChE; [6]
  IC50: 652 ± 112 nM
hBChE; [7]
  IC50: 651 nM

## CN(C)CCNC(=O)c1cc2c(cnn2CC2CCCCC2)cc1Cc1ccc(F)cc1F [Compound 95, 1-(Cyclohexylmethyl)-5-(2,4-difluorobenzyl)-N-(2-(dimethylamino)ethyl)-1H-indazole-6-carboxamide]
PAK2
  RA @ 1000nM: 100%
  RA @ 10000nM: 95%
AURKB
  RA @ 1000nM: 99%
  RA @ 10000nM: 71%
JNK3
  RA @ 1000nM: 48%
  RA @ 10000nM: 3.7%
p38β
  RA @ 1000nM: 84%
  RA @ 10000nM: 18%
[1]
  motor adverse effects (locomotor activity test): no motor adverse effects
FAK
  RA @ 1000nM: 92%
  RA @ 10000nM: 94%
HepG2 cells
  cell viability: did not affect cell viability
SH-SY5Y cells
  cell viability: did not affect cell viability
PLK3
  RA @ 1000nM: 88%
  RA @ 10000nM: 100%
[2]
  RA @ 1000nM: 94%
  RA @ 10000nM: 94%
DCAMKL1
  RA @ 1000nM: 100%
  RA @ 10000nM: 100%
LCK
  RA @ 1000nM: 94%
  RA @ 10000nM: 100%
PRKCE
  RA @ 1000nM: 79%
  RA @ 10000nM: 76%
Human p38α MAPK; [4]
  IC50: 191 nM
Human p38α MAPK; [5]
  IC50: 191 ± 21 nM
PLK1
  RA @ 1000nM: 100%
  RA @ 10000nM: 100%
Panel of 103 kinases
  kinase selectivity: high selectivity for p38α MAPK
MARK3
  RA @ 1000nM: 79%
  RA @ 10000nM: 86%
IKKβ
  RA @ 1000nM: 93%
  RA @ 10000nM: 80%
PDPK1
  RA @ 1000nM: 100%
  RA @ 10000nM: 87%
Log D determination
  measured log D at pH 7.4: 2.77
KIT(D816V)
  RA @ 1000nM: 96%
  RA @ 10000nM: 94%
SRPK3
  RA @ 1000nM: 92%
  RA @ 10000nM: 99%
[3]
  RA @ 1000nM: 89%
  RA @ 10000nM: 75%
hBChE; [6]
  IC50: 772 ± 57 nM
hBChE; [7]
  IC50: 770 nM
